Measured values taken from patent publication US6727038B1, “Photodefineable compositions” (Dow Global Technologies Inc., priority 1995, dated 2004).

Experiments:
Type in all cases: physicochemical
[1] = Solubility of bis azides in mesitylene and in DVS resin/mesitylene mixture; settings: for Solubility In Mesitylene: in mesitylene at 25° C.; for Solubility In Mixture: mixture of 45 weight percent DVS resin in mesitylene at 10° C., weight percent based on total weight of mixture
Procedure: The solubility of various bis azides are determined in mesitylene at 25° C. and in a mixture of 45 weight percent DVS resin in mesitylene at 10° C. The results are shown in Table I. BAC-M is 2,6-bis(4-azidobenzylidene)-4-methylcyclohexanone and differs from the bis azide of the invention by having a methyl substituent on the cyclohexanone ring instead of ethyl. BAC-P is 2,6-bis(4-azidobenzylidene)-4-n-propyl cyclohexanone and differs from the bis azide of the invention by having an n-propyl substituent on the cyclohexanone ring instead of ethyl. The weight percent in the mixture is calculated based on the total weight of mixture.

[2] = Storage at -15° C., precipitate formation
Procedure: A formulation containing 3.6 weight percent BAC-E in a mixture of 45 weight percent DVS resin in mesitylene is stored for more than five months at −15° C. […] A formulation containing 4.05 weight percent BAC-E in a mixture of 45 weight percent DVS resin in mesitylene is stored at −15° C. A precipitate forms in three days. A formulation containing 2.0 weight percent BAC-M in a mixture of 45 weight percent DVS resin in mesitylene is stored at −15° C. A precipitate forms in less than ten days.

[3] = Speed of dissolution in DVS resin/mesitylene; settings: shaken at room temperature
Procedure: BAC-E, up to four weight percent, is added to a mixture of 45 weight percent DVS resin in mesitylene and shaken at room temperature. The BAC-E dissolves in thirty minutes. BAC-M, at 2.0 weight percent is added to a mixture of 45 weight percent DVS resin in mesitylene and shaken at room temperature. The BAC-M requires more than eight hours of shaking to dissolve.

Row | SMILES | Solubility In Mesitylene [1] | Solubility In Mixture [1] | precipitate formation on storage ([2]; 3.6 weight percent BAC-E in 45 weight percent DVS resin in mesitylene, stored more than five months at -15° C.) | time to dissolve ([3]; up to four weight percent in 45 weight percent DVS resin in mesitylene) | time until a precipitate forms ([2]; 2.0 weight percent BAC-M in 45 weight percent DVS resin in mesitylene, stored at -15° C.) | time of shaking to dissolve ([3]; 2.0 weight percent in 45 weight percent DVS resin in mesitylene)
1 | CCC1C/C(=C\c2ccc(N=[N+]=[N-])cc2)C(=O)/C(=C/c2ccc(N=[N+]=[N-])cc2)C1 (stereo not shown) [BAC-E, 2,6-bis(4-azidobenzylidene)-4-ethylcyclohexanone] | 14 g/100 mL | 10.4 Wt % | No precipitate forms | thirty |  | 
2 | CC1CC(=Cc2ccc(N=[N+]=[N-])cc2)C(=O)C(=Cc2ccc(N=[N+]=[N-])cc2)C1 (stereo not shown) [BAC-M, 2,6-bis(4-azidobenzylidene)-4-methylcyclohexanone] | 1.7 g/100 mL | 1.0 Wt % |  |  | less than ten | more than eight
3 | CCCC1CC(=Cc2ccc(N=[N+]=[N-])cc2)C(=O)C(=Cc2ccc(N=[N+]=[N-])cc2)C1 (stereo not shown) [BAC-P, 2,6-bis(4-azidobenzylidene)-4-n-propyl cyclohexanone] | 3.5 g/100 mL | 1.7 Wt % |  |  |  | 
